Data reported in PMC12517401, “Design, synthesis, and antiproliferative activity of new 2-amino-pyrano[3,2-c]quinoline-3-carbonitriles as potential EGFR, BRAF^V600E, and HER-2 inhibitors” (RSC Advances, 2025).
Read-outs that look alike come from different tables or passages of the source.

Legend:
[1] = system: breast cancer (MCF-7); experiment: Antiproliferative assay, MCF-7; type: cell-based, human; conditions: Homo sapiens, MCF7; MCF-7 breast cancer cell line; read-out: Antiproliferative activity IC50 ± SEM (nM) MCF-7
Procedure: (§1) 4.2.2. Assay for antiproliferative effect
(§2) To explore the antiproliferative potential of compounds propidium iodide fluorescence assay was performed using different cell lines such as Panc-1 (pancreas cancer cell line), MCF-7 (breast cancer cell line), HT-29 (colon cancer cell line) and A-549 (epithelial cancer cell line), respectively. To calculate the total nuclear DNA, a fluorescent dye (propidium iodide, PI) is used which can attach to the DNA, thus offering a quick and precise technique. PI cannot pass through the cell membrane and its signal intensity can be considered as directly proportional to quantity of cellular DNA. Cells whose cell membranes are damaged or have changed permeability are counted as dead ones. The assay was performed by seeding the cells of different cell lines at a density of 3000-7500 cells/well (in 200μl medium) in culture plates followed by incubation for 24h at 37 °C in humidified 5%CO2/95% air atmospheric conditions. The medium was removed; the compounds were added to the plates at 10 μM concentrations (in 0.1% DMSO) in triplicates, followed by incubation for 48h. DMSO (0.1%) was used as control. After incubation, medium was removed followed by the addition of PI (25 μl, 50μg/mL in water/medium) to each well of the plates. At -80 °C, the plates were allowed to freeze for 24 h, followed by thawing at 25 °C. A fluorometer (Polar-Star BMG Tech) was used to record the readings at excitation and emission wavelengths of 530 and 620 nm for each well. The percentage cytotoxicity of compounds was calculated using the following formula:
(§3) Where ATC= Absorbance of treated cells and AC= Absorbance of control. Erlotinib was used as positive control in the assay. […]

[2] = molecular target: T1, EGFR (Homo sapiens, UniProt P00533); experiment: EGFR-TK inhibitory assay
T1 sequence (P00533 669-1210): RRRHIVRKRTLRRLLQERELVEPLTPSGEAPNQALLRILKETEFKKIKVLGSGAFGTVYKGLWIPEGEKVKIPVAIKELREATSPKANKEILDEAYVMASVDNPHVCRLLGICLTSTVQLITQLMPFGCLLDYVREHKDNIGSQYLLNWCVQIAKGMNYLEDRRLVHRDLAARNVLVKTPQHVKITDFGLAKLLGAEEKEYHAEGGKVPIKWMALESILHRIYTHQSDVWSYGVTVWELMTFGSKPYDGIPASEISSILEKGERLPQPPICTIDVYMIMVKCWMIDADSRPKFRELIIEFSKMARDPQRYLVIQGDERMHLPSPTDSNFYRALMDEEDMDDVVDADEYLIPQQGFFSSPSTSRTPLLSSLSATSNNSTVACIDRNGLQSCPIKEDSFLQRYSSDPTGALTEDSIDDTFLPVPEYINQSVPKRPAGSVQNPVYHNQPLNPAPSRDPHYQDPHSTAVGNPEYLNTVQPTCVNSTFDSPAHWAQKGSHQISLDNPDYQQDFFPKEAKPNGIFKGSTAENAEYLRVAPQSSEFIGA

[3] = system: lung cancer (A-549); experiment: Antiproliferative assay, A-549; type: cell-based; conditions: Homo sapiens, A549; A-549 lung cancer cell line; read-out: Antiproliferative activity IC50 ± SEM (nM) A-549
Procedure: as §1, §2, §3
(1 picture or pasted object on this page, not shown here)

[4] = system: four human cancer cell lines (A-549, MCF-7, Panc-1, HT-29); experiment: Antiproliferative assay, average over four cancer cell lines (GI50); type: cell-based; conditions: for GI50: GI50 = mean IC50 against the four cancer cell lines
Procedure: as §1
To explore the antiproliferative potential of compounds propidium iodide fluorescence assay was performed using different cell lines such as Panc-1 (pancreas cancer cell line), MCF-7 (breast cancer […]
calculate the total nuclear DNA, a fluorescent dye (propidium iodide, PI) is used which can attach to the DNA, thus offering a quick and precise technique. PI cannot pass through the cell membrane and its signal intensity can be considered as directly proportional to quantity of cellular DNA. Cells whose cell membranes are damaged or have changed permeability are counted as dead ones. The assay was performed by seeding the cells of different cell lines at a density of 3000-7500 cells/well (in 200μl […]
atmospheric conditions. The medium was removed; the compounds were added to the plates at 10 μM concentrations (in 0.1% DMSO) in triplicates, followed by incubation for 48h. DMSO (0.1%) was used as control. After incubation, medium was removed followed by the addition of PI (25 μl, 50μg/mL in water/medium) to each well of the plates. At -80 °C, the plates were allowed to freeze for 24 h, followed by thawing at 25 °C. A fluorometer (Polar-Star BMG Tech) was used to record the readings at excitation and emission wavelengths of 530 and 620 nm for each well. The percentage cytotoxicity of compounds was calculated using the following formula:
Where ATC= Absorbance of treated cells and AC= Absorbance of control. […]
positive control in the assay. […]

[5] = system: BRAF^V600E; experiment: BRAF^V600E inhibitory assay; conditions: ratio of BRAF^V600E IC50 versus erlotinib
BRAF^V600E, sequence (P28028 whole entry V585E): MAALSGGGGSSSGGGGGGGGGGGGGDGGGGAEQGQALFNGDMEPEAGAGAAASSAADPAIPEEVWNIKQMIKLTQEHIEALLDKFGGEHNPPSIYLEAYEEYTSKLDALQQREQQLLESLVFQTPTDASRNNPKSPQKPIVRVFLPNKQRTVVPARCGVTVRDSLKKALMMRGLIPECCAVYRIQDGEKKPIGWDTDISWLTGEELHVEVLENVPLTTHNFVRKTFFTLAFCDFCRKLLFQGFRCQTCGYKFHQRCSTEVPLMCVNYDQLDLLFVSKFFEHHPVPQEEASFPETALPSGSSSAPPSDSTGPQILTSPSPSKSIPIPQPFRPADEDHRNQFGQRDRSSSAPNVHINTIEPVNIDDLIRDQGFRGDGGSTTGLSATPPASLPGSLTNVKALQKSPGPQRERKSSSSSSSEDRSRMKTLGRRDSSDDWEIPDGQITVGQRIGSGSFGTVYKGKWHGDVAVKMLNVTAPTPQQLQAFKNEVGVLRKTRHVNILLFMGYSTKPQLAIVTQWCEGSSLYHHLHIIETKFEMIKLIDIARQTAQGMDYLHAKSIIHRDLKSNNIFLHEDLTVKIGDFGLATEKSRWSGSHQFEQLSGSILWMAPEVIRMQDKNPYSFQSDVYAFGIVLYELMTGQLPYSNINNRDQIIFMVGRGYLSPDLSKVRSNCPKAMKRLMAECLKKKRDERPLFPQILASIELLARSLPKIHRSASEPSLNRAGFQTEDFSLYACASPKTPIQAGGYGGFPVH

[6] = molecular target: BRAF^V600E (Mus musculus, UniProt P28028, V585E); experiment: BRAF^V600E inhibitory assay
BRAF^V600E (Mus musculus, UniProt P28028, V585E), sequence (P28028 whole entry V585E): as above

[7] = Cell viability assay (MTT) on MCF-10A normal cell line; type: cell-based; conditions: human, MCF-10A mammary gland epithelial normal cells, MCF-10A cells, 50 μM of each compound, four days of incubation
Procedure: The human mammary gland epithelial (MCF-10A) normal cell line was used to examine the viability effects of new derivatives 5a–l using the MTT test.[33,34] Refer to Appendix A for more details.
The human mammary gland epithelium (MCF-10A) normal cell line was employed to evaluate the viability effects of novel derivatives 5a–l. The cell viability of 5a–l was assessed via the MTT assay following four days of incubation with 50 μM of each compound on MCF-10A cells.[33,34] […]
4.2. Biological evaluation
4.2.1 Cell Viability assay (MTT assay)
MTT assay was performed to investigate the effect of the synthesized compounds on mammary epithelial cells (MCF-10A). The cells were propagated in medium consisting of Ham's F-12 medium/ Dulbecco's modified Eagle's medium (DMEM) (1:1) supplemented with 10% foetal calf serum, 2 mM glutamine, insulin (10 μg/mL), hydrocortisone (500 ng/mL) and epidermal growth factor (20 ng/mL). Trypsin ethylenediamine tetra acetic acid (EDTA) was used to passage the cells after every 2-3 days. 96-well flat-bottomed cell culture plates were used to seed the cells at a density of 10^4 cells mL-1. The medium was aspirated from all the wells of culture plates after 24 h followed by the addition of synthesized compounds (in 200 μL medium to yield a final concentration of 0.1% (v/v) dimethyl sulfoxide) into individual wells of the plates. Four wells were designated to a single compound. The plates were allowed to incubate at 37°C for 96 h. Afterwards, the medium was aspirated and 3-[4,5-dimethylthiazol-2-yl]-2,5-diphenyltetrazolium bromide (MTT) (0.4 mg/mL) in medium was added to each well and subsequently incubated for 3 h. The medium was aspirated and 150 μL dimethyl sulfoxide (DMSO) was added to each well. The plates were vortexed followed by the measurement of absorbance at 540 nm on a microplate reader. The results were presented as inhibition (%) of proliferation in contrast to controls comprising 0.1% DMSO. […]

[8] = system: colon cancer (HT-29); experiment: Antiproliferative assay, HT-29; type: cell-based; conditions: Homo sapiens; HT-29 colon cancer cell line; read-out: Antiproliferative activity IC50 ± SEM (nM) HT-29
Procedure: as §1, §2, §3

[9] = molecular target: T2, HER-2 (Homo sapiens, UniProt P04626); experiment: HER-2 inhibitory assay (ADP-Glo kinase assay); type: biochemical; conditions: read-out: HER-2 inhibition IC50 ± SEM
T2 construct: purchased Abcam ab60866
T2 sequence (P04626 23-1255): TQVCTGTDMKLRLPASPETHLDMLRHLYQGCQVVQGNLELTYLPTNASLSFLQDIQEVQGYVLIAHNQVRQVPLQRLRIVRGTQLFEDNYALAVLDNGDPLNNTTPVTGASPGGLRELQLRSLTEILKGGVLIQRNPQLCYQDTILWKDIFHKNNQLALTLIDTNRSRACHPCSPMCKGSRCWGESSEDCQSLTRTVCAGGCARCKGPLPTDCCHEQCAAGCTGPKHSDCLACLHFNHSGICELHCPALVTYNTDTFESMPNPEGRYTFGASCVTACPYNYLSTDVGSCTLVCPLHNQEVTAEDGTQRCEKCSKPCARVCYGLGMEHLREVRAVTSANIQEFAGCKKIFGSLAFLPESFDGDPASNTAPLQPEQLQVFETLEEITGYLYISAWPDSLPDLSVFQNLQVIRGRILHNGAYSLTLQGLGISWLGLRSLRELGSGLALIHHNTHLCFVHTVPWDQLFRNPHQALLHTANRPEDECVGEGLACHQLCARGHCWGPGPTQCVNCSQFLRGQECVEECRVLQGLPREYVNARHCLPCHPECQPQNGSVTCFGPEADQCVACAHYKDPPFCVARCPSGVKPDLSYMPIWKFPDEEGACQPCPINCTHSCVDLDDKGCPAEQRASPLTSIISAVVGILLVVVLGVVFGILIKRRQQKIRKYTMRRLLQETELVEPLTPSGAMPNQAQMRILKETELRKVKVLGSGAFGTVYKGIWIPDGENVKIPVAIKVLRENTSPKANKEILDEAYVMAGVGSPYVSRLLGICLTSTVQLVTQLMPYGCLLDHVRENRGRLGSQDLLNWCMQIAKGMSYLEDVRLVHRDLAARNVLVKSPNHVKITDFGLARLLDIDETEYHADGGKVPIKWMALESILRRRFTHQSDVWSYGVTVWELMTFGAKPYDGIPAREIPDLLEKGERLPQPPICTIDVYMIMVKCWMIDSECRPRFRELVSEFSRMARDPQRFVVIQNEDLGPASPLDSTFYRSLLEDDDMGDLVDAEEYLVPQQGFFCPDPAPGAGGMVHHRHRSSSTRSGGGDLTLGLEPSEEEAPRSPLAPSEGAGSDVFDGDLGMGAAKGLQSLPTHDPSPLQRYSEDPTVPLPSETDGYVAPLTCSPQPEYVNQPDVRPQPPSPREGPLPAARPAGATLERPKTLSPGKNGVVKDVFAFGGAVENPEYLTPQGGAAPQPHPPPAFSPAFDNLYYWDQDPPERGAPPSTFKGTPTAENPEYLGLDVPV
Procedure: The results are presented as IC50 values. Lapatinib served as the reference medication. Appendix A describes more experimental details.
Lapatinib functioned as the reference drug. […]
4.2.5. HER-2 inhibitory assay
The ADP-Glo™ Kinase Assay was used for kinase activity detection, related kinases information:
HER-2 (ab60866, Abcam), with a concentration of 100 ng/mL. Target compounds were dissolved in DMSO to obtain drug solutions with different concentrations, and the compound concentrations in the final reaction system (100 μL) were 1 nM, 20 nM, 40 nM, 80 nM, and 100 nM, respectively. 10μL of the solution containing compounds was transferred to a 96-well plate, then added 40 μL of 1 × kinase buffer (50 mM HEPES, pH 7.5) to each well, and mixed the mixture in the 96-well plate on a shaker for 10 min. Next, added 25 μL of ADP-Glo™ reagent to the above wells, mixed and incubated for another 40 min. Distributed 10 μL kinase detection reagent to the reaction and incubated for 30 min. Finally, the full-wavelength microplate reader was used to record the OD value.
4.3. Statistical analysis
Computerized Prism 5 program was used to statistically analyzed data using one-way ANOVA test followed by Tukey’s as post ANOVA for multiple comparison at P ≤.05. Data were presented as […]

[10] = system: pancreatic cancer (Panc-1); experiment: Antiproliferative assay, Panc-1; type: cell-based; conditions: Homo sapiens; Panc-1 pancreatic cancer cell line; read-out: Antiproliferative activity IC50 ± SEM (nM) Panc-1
Procedure: as §1, §2, §3

[11] = system: four human cancer cell lines; set-up: method as in doi:10.1016/j.molstruc.2023.136953; conditions: earlier study of the authors; read-out: GI50 against the four cancer cell lines; cited from earlier work
[12] = molecular target: T1, EGFR; set-up: 645–1186; His6 (N); made in house; host or cells: Sf-9 insect cells (baculovirus; pBlueBacHis2B / pFASTBacHTc); method as in doi:10.1016/j.molstruc.2023.136953; conditions: earlier study of the authors; cited from earlier work
[13] = molecular target: T1, EGFR; set-up: 645–1186; His6 (N); made in house; host or cells: Sf-9 insect cells (baculovirus; pBlueBacHis2B / pFASTBacHTc); method as in PMID 39434991; conditions: earlier study of the authors; read-out: EGFR inhibitory IC50; cited from earlier work
[14] = molecular target: T2, HER-2; set-up: method as in PMID 39434991; conditions: earlier study of the authors; read-out: HER-2 inhibitory IC50; cited from earlier work
[15] = system: BRAF^V600E; set-up: method as in doi:10.1016/j.molstruc.2023.136953; conditions: earlier study of the authors; cited from earlier work
[16] = system: BRAF^V600E; set-up: method as in PMID 33279248; conditions: earlier study of the authors; cited from earlier work

SMILES	IC50 [1]	IC50 [2]	IC50 [3]	GI50 ([4]; Homo sapiens)	Fold reduced potency compared to erlotinib, BRAF^V600E [5]	IC50 [6]	viability at 4 days, 50 µM [7]	IC50 [8]	IC50 [9]	IC50 [10]	GI50 [11]	also measured
COc1ccc(C2C(C#N)=C(N)Oc3c2c(=O)[nH]c2ccc(OC)cc32)cc1 (stereo not drawn) [Compound 5h, 2-Amino-9-methoxyl-4-(4-methoxylphenyl)-5-oxo-5,6-dihydro-4H-pyrano[3,2-c]quinoline-3-carbonitrile]	26 ± 2 nM	75 ± 4 nM	28 ± 2 nM	26 nM	1.1 fold	67 ± 3 nM	91%	29 ± 2 nM	23 ± 1 nM	29 ± 2 nM	–	GI50 [4]: 28 nM; Times more effective than erlotinib (GI50) ([4]; ratio of GI50 versus erlotinib, four cancer cell lines): 1.25 fold
COc1cccc2c1C(=O)c1c(O)c3c(c(O)c1C2=O)C[C@@](O)(C(=O)CO)C[C@@H]3O[C@H]1C[C@H](N)[C@H](O)[C@H](C)O1 [doxorubicin]	–	–	–	–	–	–	–	–	–	–	1400 nM	–
CC(=NO)c1ccc(NC(=O)c2cc(-c3ccc(S(C)(=O)=O)cc3)nc3ccccc23)cc1 [Compound II]	–	–	–	–	–	–	–	–	–	–	1200 nM	IC50 [12]: 105 ± 10 nM
COc1ccc(C2C(C#N)=C(N)Oc3c2c(=O)n(C)c2ccccc32)cc1 (stereo not drawn) [Compound 5i, 2-Amino-6-methyl-4-(4-methoxylphenyl)-5-oxo-5,6-dihydro-4H-pyrano[3,2-c]quinoline-3-carbonitrile]	27 ± 2 nM	78 ± 4 nM	30 ± 2 nM	30 nM	1.3 fold	74 ± 4 nM	90%	33 ± 2 nM	31 ± 2 nM	31 ± 2 nM	–	–
O=c1[nH]c2ccccc2c(O)c1/C=N/c1ccc(NS(=O)(=O)c2ncccn2)cc1 [Compound I]	–	–	–	–	–	–	–	–	–	–	–	IC50 [13]: 71 nM; IC50 [14]: 31 nM
C#Cc1cccc(Nc2ncnc3cc(OCCOC)c(OCCOC)cc23)c1 [Erlotinib, reference compound]	40 ± 3 nM	–	30 ± 3 nM	–	–	–	–	30 ± 3 nM	–	30 ± 3 nM	–	IC50 [15]: […]; IC50 [16]: […]
